For this experiment, the target named is Induced myeloid leukemia cell differentiation protein Mcl-1 (Homo sapiens) (UniProt Q07820). In words: Mcl-1/Bim interaction regulators – biochemical, bead-based flow cytometry, multiplexed, human, dose response (AID 1329). The following applies: Bim peptide-Mcl-1 binding, MCF. In general terms: Flow cytometry measures light scatter and fluorescence of single cells or particles in a stream.

The structures appear in SMILES notation. Activity calls are given as the source filed them. No rule for the calls is given here.

Sequence of Induced myeloid leukemia cell differentiation protein Mcl-1 (Homo sapiens) (Q07820 whole entry, looked up): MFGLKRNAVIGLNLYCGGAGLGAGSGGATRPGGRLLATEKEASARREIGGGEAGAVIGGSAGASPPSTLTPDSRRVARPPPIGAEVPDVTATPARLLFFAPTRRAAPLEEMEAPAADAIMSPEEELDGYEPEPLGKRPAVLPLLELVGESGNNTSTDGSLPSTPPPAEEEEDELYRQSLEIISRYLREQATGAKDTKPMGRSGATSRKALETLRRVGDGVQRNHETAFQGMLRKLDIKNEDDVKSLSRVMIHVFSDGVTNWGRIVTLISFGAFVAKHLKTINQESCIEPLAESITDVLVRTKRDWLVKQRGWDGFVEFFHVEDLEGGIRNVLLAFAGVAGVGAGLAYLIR

As for `CCc1ccc(NC(=O)Cc2ccc(OC)cc2)cc1`, the percent span entry was “inactive”.
The result for `C=CCN1C(=O)/C(=C/c2ccsc2)SC1=S` reads “inactive”; that for `CC1(C)CC(=O)C(C=NCCN2CCN(CCc3ccccc3)CC2)=C(O)C1`, “inactive”; that for `COc1ccccc1NC(=O)CSc1ncn(-c2ccccc2)n1`, “inactive”.
The result for `Cc1[nH]c2ccccc2c1C(=O)COC(=O)c1c(-c2c(F)cccc2Cl)noc1C` reads “inactive”; that for `Cc1ccc(N=c2ssnc2Cl)cc1`, “inactive”; that for `CCC(=O)OCCNc1cc(Sc2nccn2C)c2nonc2c1[N+](=O)[O-]`, “inactive”.
In the case of `CCN(CC)c1ccc(-c2nn3c(-c4ccccc4OC)nnc3s2)cc1`, the percent span entry is “inactive”.
On to `CCN1/C(=C/c2ccc3cc(C)ccc3[n+]2CC)Sc2cc(C)c(C)cc21`, for which the percent span result is “inactive”.
The value for `COc1ccccc1Oc1ccc2c(c1)C(=O)N(c1ccccc1)C2=O` was “inactive”.
The value for `Cc1ccc(NC(=S)N2CCn3cccc3C2c2cccnc2)cc1` (stereo not given) was “inactive”; that for `CN(C)/C=C/C(=O)c1ccc(C(F)(F)F)cc1F` was “inactive”.
The value for `Cc1ccc(-c2nc3c(c(=O)[nH]c(=O)n3Cc3ccccc3)n2C)o1` was “inactive”; that for `COC(=O)Cc1ccc(NC(=S)N2CCN(c3cccc(O)c3)CC2)cc1` was “inactive”.
Take `CCN(CC)c1ccc(NC(=O)c2ccc(=O)[nH]c2)cc1S(=O)(=O)Nc1ccccc1OC`: the percent span result was “inactive”.
The value for `C=CS(=O)c1sc(Cl)c(N2CCOCC2)c1[N+](=O)[O-]` (stereo not given) was “inactive”.
As for `S=c1[nH]cc(-c2ccccc2)n1-c1ccccc1`, the percent span result was “inactive”.
The result for `Cn1c(CCNC(=O)C2CCCCC2)nc2cc(NC(=O)c3cccs3)ccc21` reads “inactive”.
The result for `O=C(C1=C(Nc2ccccc2)c2ccccc2S(=O)(=O)N1)c1ccccc1` reads “inactive”.
The result for `C#CCOCCOCCOCCNc1nc(N2CCN(C(=O)[C@H]([C@@H](C)CC)n3cc([C@@H](N)CC(C)C)nn3)CC2)nc(N2CCN(C(=O)[C@H](Cc3cc4ccccc4[nH]3)n3cc([C@@H](N)Cc4ccc(O)cc4)nn3)CC2)n1` reads “inactive”; that for `O=C(CSc1nnc(Cc2ccccc2)o1)NCc1ccco1`, “inactive”.
With `COC(=O)c1ccc(-n2nnnc2SCC(=O)Nc2cc(OC)ccc2OC)cc1`, the percent span entry was “inactive”.
The result for `CCC(=O)OCCNc1cc(Sc2nc3ccccc3[nH]2)c2nonc2c1[N+](=O)[O-]` reads “inactive”.
The value for `Clc1nssc1=Nc1ccccc1` was “inactive”; that for `COC(=O)c1sc2nc[nH]c(=O)c2c1C` was “inactive”.
The result for `CCOC(=O)C1(CC/C(C)=N\NC(N)=O)CC(C)(C)OC1=O` (stereo not given) reads “inactive”.
For the compound `O=C(NCc1ccccc1)C(=O)Nc1nc(C23CC4CC(CC(C4)C2)C3)cs1`, the percent span entry is “inactive”.
The result for `O=C1C(=O)c2ccc(-c3ccccc3)cc2-c2ccccc21` reads “inactive”.
The result for `O=C(COC(=O)CCCN=C1NS(=O)(=O)c2ccccc21)NC(=O)NC1CCCC1` reads “inactive”; that for `O=c1c2c(-c3ccccc3)csc2nc2c3ccccc3c(NCCN3CCOCC3)nn12`, “inactive”.
The value for `O=C(NC1=C(NC2CCS(=O)(=O)C2)C(=O)c2ccccc2C1=O)c1ccccc1` (stereo not given) was “inactive”; that for `c1ccc(-c2nnc(OCCN3CCOCC3)c3ccccc23)cc1` was “inactive”.
With `COc1cc(/C=N/Nc2nc3c(c(=O)n(C)c(=O)n3C)n2Cc2ccccc2)ccc1OC(=O)c1ccco1`, the percent span entry was “inactive”.
The value for `COc1ccc(N2CC(C(=O)Nc3nnc(SCC(=O)c4ccccc4)s3)CC2=O)cc1` (stereo not given) was “inactive”; that for `CCOC(=O)CSC1=NC(=O)/C(=C/c2ccc(OC)cc2)S1` was “inactive”.

Source of the values: PubChem BioAssay AID1329 (NMMLSC, 2008).
